Here are results for three compounds from paper PMC3214651 (Antiviral research, 2009).

Series [1] deals with WNV. The settings on record: ref Zou et al., 2008; cited from earlier work.
Series [2] concerns the target WNV NTPase (NS3) (West Nile virus, UniProt Q9Q6P4). Description: NTPase assay. Type of series: biochemical. The settings on record: 1 µM, control compound.
The target in series [3] is WNV protease (NS2b-NS3) (West Nile virus, UniProt Q9Q6P4). Description: Protease assay. Particulars: 25 µM, control compound.

pEC50: −log10 of the molar value. Bounds are passed on as bounds.

For `O[C@H]1[C@H]2c3cc4c(cc3CN3CCC(=C[C@@H]1O)[C@H]23)OCO4` [lycorine], in series [1], the pEC50 was 6.64 and the TI is 104.
As to `Nc1nc2c(ncn2[C@@H]2O[C@H](COP(=O)(O)OP(=O)(O)OP(=O)(O)O)[C@@H](O)[C@H]2O)c(=O)[nH]1` [nonradioactive GTP, GTP], the “suppression of NTPase activity” value in series [2] was over 85%.
For aprotinin, the “suppression of protease activity” value in series [3] is reported as over 85%.
